The text below walks through data of ChEMBL document CHEMBL1146766, “Synthesis of 3a,4-dihydro-3H-[1]benzopyrano[4,3-c]isoxazoles, displaying combined 5-HT uptake inhibiting and alpha2-adrenoceptor antagonistic activities. Part 2: Further exploration on the cinnamyl moiety” (Bioorg Med Chem Lett, 2004).

Assay [1] has as its target Adrenergic receptor alpha-2 (Rattus norvegicus) (UniProt P22086+P19328+P22909). Put plainly: Inhibition ofmedetomidine-induced loss of righting, which evaluates the ability to block central alpha-2-adrenoceptor. The class given is functional.
Assay [2] concerns the target T1, Alpha-2A adrenergic receptor (Homo sapiens, UniProt P08913).
T1 sequence (P08913 whole entry): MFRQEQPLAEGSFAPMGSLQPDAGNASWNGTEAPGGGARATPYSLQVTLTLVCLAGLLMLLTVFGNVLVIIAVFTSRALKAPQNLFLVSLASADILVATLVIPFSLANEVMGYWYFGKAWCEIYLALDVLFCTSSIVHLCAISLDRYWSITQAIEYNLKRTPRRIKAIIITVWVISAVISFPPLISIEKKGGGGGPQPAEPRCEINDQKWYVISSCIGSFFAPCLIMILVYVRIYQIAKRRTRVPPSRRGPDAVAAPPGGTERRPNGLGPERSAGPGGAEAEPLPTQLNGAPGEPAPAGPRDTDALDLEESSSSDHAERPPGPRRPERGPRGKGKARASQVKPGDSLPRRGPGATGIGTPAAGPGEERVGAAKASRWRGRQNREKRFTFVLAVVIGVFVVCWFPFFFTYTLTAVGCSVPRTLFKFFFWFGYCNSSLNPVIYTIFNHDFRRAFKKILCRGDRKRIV
In words: In vitro binding affinity to the human alpha-2A adrenergic receptor.

Assay [3] has as its target T2, Alpha-2C adrenergic receptor (Homo sapiens, UniProt P18825).
T2 sequence (P18825 whole entry): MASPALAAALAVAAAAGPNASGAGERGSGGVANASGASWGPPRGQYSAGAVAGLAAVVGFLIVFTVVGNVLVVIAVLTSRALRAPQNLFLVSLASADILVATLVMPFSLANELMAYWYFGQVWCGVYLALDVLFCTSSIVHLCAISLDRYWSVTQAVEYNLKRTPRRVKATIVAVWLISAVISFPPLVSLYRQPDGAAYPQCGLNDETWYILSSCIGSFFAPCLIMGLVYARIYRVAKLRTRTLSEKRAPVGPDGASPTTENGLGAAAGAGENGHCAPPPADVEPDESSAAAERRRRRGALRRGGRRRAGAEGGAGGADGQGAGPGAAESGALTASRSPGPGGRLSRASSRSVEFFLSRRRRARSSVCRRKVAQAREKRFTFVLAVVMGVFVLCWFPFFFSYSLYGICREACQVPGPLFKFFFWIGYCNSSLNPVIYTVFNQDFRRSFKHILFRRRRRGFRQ
In words: In vitro binding affinity to human alpha-2C adrenergic receptor.

The target of assay [4] is Sodium-dependent serotonin transporter (Homo sapiens, UniProt P31645). Put plainly: In vitro binding affinity towards human serotonin transporter.
Sodium-dependent serotonin transporter, sequence (P31645 whole entry): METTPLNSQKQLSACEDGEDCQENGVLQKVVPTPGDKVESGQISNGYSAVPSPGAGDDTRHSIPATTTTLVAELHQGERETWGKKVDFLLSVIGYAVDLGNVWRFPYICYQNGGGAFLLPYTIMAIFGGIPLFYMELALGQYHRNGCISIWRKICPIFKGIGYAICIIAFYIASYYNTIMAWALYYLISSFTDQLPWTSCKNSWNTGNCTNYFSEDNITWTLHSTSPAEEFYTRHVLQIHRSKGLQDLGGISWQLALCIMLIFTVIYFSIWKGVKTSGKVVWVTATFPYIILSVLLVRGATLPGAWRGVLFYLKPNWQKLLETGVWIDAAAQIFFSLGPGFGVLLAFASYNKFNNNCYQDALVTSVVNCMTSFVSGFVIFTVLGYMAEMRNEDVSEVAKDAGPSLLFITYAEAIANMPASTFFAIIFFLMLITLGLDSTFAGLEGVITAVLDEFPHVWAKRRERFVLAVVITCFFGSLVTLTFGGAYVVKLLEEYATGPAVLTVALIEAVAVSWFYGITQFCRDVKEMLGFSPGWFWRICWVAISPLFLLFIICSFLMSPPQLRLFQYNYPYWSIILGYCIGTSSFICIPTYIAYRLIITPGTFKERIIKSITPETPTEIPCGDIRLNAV

One may read the ED50 as the midpoint of the dose-response relation. Lower therefore signals greater potency. Broadly, the Ki is a dissociation constant, usually derived from enzyme kinetics or from competition with a known ligand. Read a high Ki as weaker binding. `COc1cc2c(cc1OC)C1=NO[C@@H](CN3CCN(C/C(C)=C/c4ccc(F)cc4)CC3)[C@@H]1CO2`: the median effective dose (ED50) in assay [1] was determined as 10 mg/kg. Also, the figures for the Ki in assay [2] and in assay [3] were 3.4 nM and 0.7 nM, respectively.
The molecule `COc1cc2c(cc1OC)C1=NO[C@@H](CN3CCN(C/C=C/c4ccccc4F)CC3)[C@@H]1CO2` showed an ED50 in assay [1] of 2.5 mg/kg. For the same molecule, the figures for the inhibition constant Ki in assay [2], in assay [3] and in assay [4] were 2.9 nM, 2.8 nM and 13 nM, respectively.
`COc1cc2c(cc1OC)C1=NO[C@@H](CN3CCN(C/C=C(\C)c4cccs4)CC3)[C@@H]1CO2` registered an ED50 in assay [1] of 0.63 mg/kg. The Ki stood at 0.3 nM in assay [2], 0.2 nM in assay [3] and 74 nM in assay [4].
Regarding `COc1cc2c(cc1OC)C1=NO[C@@H](CN3CCN(C/C=C(\C)c4ccccc4)CC3)[C@@H]1CO2`, the 50% effect level in assay [1] (ED50) was put at a dose of 0.3 mg/kg. For the same molecule, the Ki in assay [4] came to 4.5 nM.
For the molecule `COc1cc2c(cc1OC)C1=NO[C@@H](CN3CCN(C/C=C(\C)c4ccc(F)cc4F)CC3)[C@@H]1CO2`, the ED50 in assay [1] was above 2.5 mg/kg. Further, the values for the Ki in assay [2], in assay [3] and in assay [4] were 9.3 nM, 0.8 nM and 5.4 nM, respectively.
Regarding `COc1cc2c(cc1OC)C1=NO[C@@H](CN3CCN(C/C=C/c4ccccc4)CC3)[C@@H]1CO2`, the affinity in assay [4] corresponds to a Ki of 8.3 nM.
In turn, `COc1cc2c(cc1OC)C1=NO[C@@H](CN3CCN(C/C(C)=C/c4cccc(F)c4F)CC3)[C@@H]1CO2` gave a 50% effective dose (ED50) in assay [1] of 10 mg/kg. Besides, the results for the inhibitory constant (Ki) in assay [2] and in assay [3] were 3 nM and 0.7 nM, respectively.
Take `COc1cc2c(cc1OC)C1=NO[C@@H](CN3CCN(C/C(C)=C/c4cccnc4)CC3)[C@@H]1CO2`: the ED50 in assay [1] turned out to be 3.1 mg/kg. Besides, the Ki in assay [2] worked out at 22 nM; in assay [3], 2.1 nM; in assay [4], 63 nM.
The like results for `COc1cc2c(cc1OC)C1=NO[C@@H](CN3CCN(C/C=C(\C)c4ccsc4)CC3)[C@@H]1CO2` were, in that order, 1.25 mg/kg, 1.4 nM, 0.3 nM and 4.8 nM.
With `COc1cc2c(cc1OC)C1=NO[C@@H](CN3CCN(C/C=C(\C)c4ccco4)CC3)[C@@H]1CO2`, the ED50 in assay [1] was found to be 0.16 mg/kg. Also, the Ki was 0.5 nM in assay [2], 0.4 nM in assay [3] and 22 nM in assay [4].
Taken in the same sequence, the figures for `COc1cc2c(cc1OC)C1=NO[C@@H](CN3CCN(C/C(C)=C/c4cccs4)CC3)[C@@H]1CO2` were 0.63 mg/kg, 1.7 nM, 0.2 nM and 2.7 nM.
Molecule `COc1cc2c(cc1OC)C1=NO[C@@H](CN3CCN(C/C=C\c4ccccc4)CC3)[C@@H]1CO2` gave an ED50 in assay [1] above 10 mg/kg. For the same molecule, the Ki in assay [4] is 35 nM.
The molecule `COc1cc2c(cc1OC)C1=NO[C@@H](CN3CCN(C/C=C(\C)c4ccccc4OC)CC3)[C@@H]1CO2` registered an ED50 in assay [1] above 2.5 mg/kg. Moreover, the Ki in assay [2] is 5.2 nM; in assay [3], 0.9 nM; in assay [4], 51 nM.
Molecule `COc1cc2c(cc1OC)C1=NO[C@@H](CN3CCN(C/C(C)=C/c4cc(F)ccc4F)CC3)[C@@H]1CO2` had an ED50 in assay [1] of 2.5 mg/kg. The values for the Ki in assay [2] and in assay [3] were 0.3 nM and 0.2 nM, respectively.
As for `COc1cc2c(cc1OC)C1=NO[C@@H](CN3CCN(C/C(C)=C/c4ccsc4)CC3)[C@@H]1CO2`, in assay [1], the median effective dose (ED50) was found to be 1.25 mg/kg. For the same molecule, the values for the Ki in assay [2], in assay [3] and in assay [4] were 1.1 nM, 0.2 nM and 1.9 nM, respectively.
`COc1cc2c(cc1OC)C1=NO[C@@H](CN3CCN(C/C(C)=C/c4ccccc4)CC3)[C@@H]1CO2`: it took a dose of 1.3 mg/kg to reach the 50% effect level in assay [1] (ED50). The molecule further returned a Ki in assay [3] of 0.2 nM.
In the case of `COc1ccccc1/C=C(\C)CN1CCN(C[C@@H]2ON=C3c4cc(OC)c(OC)cc4OC[C@H]32)CC1`, in assay [1], it took a dose of 2 mg/kg to reach the 50% effect level (ED50). Besides, the Ki in assay [2] is 1 nM; in assay [3] it was 0.4 nM.
`COc1cc2c(cc1OC)C1=NO[C@@H](CN3CCN(C/C=C(\C)c4ccc(O)cc4)CC3)[C@@H]1CO2` came in with an ED50 in assay [1] above 2.5 mg/kg. The Ki in assay [2] came out at 1.9 nM; in assay [3], 0.6 nM; in assay [4], 7.6 nM.
Molecule `COc1cc2c(cc1OC)C1=NO[C@@H](CN3CCN(C/C(C)=C/c4cccc(F)c4)CC3)[C@@H]1CO2` had a median effective dose (ED50) in assay [1] of 0.63 mg/kg. The figures for the Ki in assay [2] and in assay [3] were 1.1 nM and 0.2 nM, respectively.
In turn, `COc1cc2c(cc1OC)C1=NO[C@@H](CN3CCN(C/C(C)=C/c4ccco4)CC3)[C@@H]1CO2` registered an ED50 in assay [1] of 5 mg/kg. Also, the inhibition constant (Ki) in assay [2] was determined as 1.7 nM; in assay [3], 0.5 nM; in assay [4], 21 nM.
The like results for `COc1cc2c(cc1OC)C1=NO[C@@H](CN3CCN(C/C=C/c4cccc(F)c4)CC3)[C@@H]1CO2` were, in that order, 5 mg/kg, 5.9 nM, 0.7 nM and 2.5 nM.
The like results for `COc1cc2c(cc1OC)C1=NO[C@@H](CN3CCN(C/C=C/c4ccc(Cl)cc4)CC3)[C@@H]1CO2` were, in that order, 10 mg/kg, 69 nM, 10 nM and 1.3 nM.
Taken in the same sequence, the figures for `COc1cc2c(cc1OC)C1=NO[C@@H](CN3CCN(C/C=C(\C)c4ccc(F)cc4)CC3)[C@@H]1CO2` were 1.25 mg/kg, 2.9 nM, 0.3 nM and 1.3 nM.
Turning to `COc1cc2c(cc1OC)C1=NO[C@@H](CN3CCN(C/C=C/c4ccc(F)cc4)CC3)[C@@H]1CO2`, the 50% effective dose (ED50) in assay [1] is 4.7 mg/kg. Besides, the Ki in assay [2] is 9 nM; in assay [3], 23 nM; in assay [4] it was 5.6 nM.
